# Measurements published in PubChem BioAssay (NCI).
#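 Five concentrations, 48 hours, 96-well plates. At the GI50, growth is halved. At the TGI there is no net growth.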
# Assays:
# Experiment in all cases: NCI tumour cell line growth inhibition, 48 h
# 786-0 renal = system: 786-0 renal
# A498 renal = system: A498 renal
# A549 NSCLC = system: A549 NSCLC
# ACHN renal = system: ACHN renal
# BT-549 breast = system: BT-549 breast
# CAKI-1 renal = system: CAKI-1 renal
# CCRF-CEM leukemia = system: CCRF-CEM leukemia
# COLO 205 colon = system: COLO 205 colon
# DU-145 prostate = system: DU-145 prostate
# EKVX NSCLC = system: EKVX NSCLC
# HCC-2998 colon = system: HCC-2998 colon
# HCT-116 colon = system: HCT-116 colon
# HCT-15 colon = system: HCT-15 colon
# HL-60(TB) leukemia = system: HL-60(TB) leukemia
# HOP-62 NSCLC = system: HOP-62 NSCLC
# HOP-92 NSCLC = system: HOP-92 NSCLC
# HS 578T breast = system: HS 578T breast
# HT29 colon = system: HT29 colon
# IGROV1 ovarian = system: IGROV1 ovarian
# K-562 leukemia = system: K-562 leukemia
# KM12 colon = system: KM12 colon
# LOX IMVI melanoma = system: LOX IMVI melanoma
# M14 melanoma = system: M14 melanoma
# MALME-3M melanoma = system: MALME-3M melanoma
# MCF7 breast = system: MCF7 breast
# MDA-MB-231 breast = system: MDA-MB-231 breast
# MDA-MB-435 = system: MDA-MB-435
# MOLT-4 leukemia = system: MOLT-4 leukemia
# NCI-H226 lung = system: NCI-H226 lung
compound,measurement,setting,value
CCOc1ccc(/C=C/C(=O)c2ccccc2)cc1,GI50,786-0 renal,20.6 µM
same,TGI,786-0 renal,39.1 µM
same,GI50,A498 renal,16.2 µM
same,TGI,A498 renal,33.2 µM
same,GI50,A549 NSCLC,21.9 µM
same,TGI,A549 NSCLC,53.9 µM
same,GI50,ACHN renal,18.1 µM
same,TGI,ACHN renal,34.9 µM
same,GI50,BT-549 breast,26.4 µM
same,TGI,BT-549 breast,62 µM
same,GI50,CAKI-1 renal,14.1 µM
same,TGI,CAKI-1 renal,30.7 µM
same,GI50,CCRF-CEM leukemia,17.9 µM
same,TGI,CCRF-CEM leukemia,62.4 µM
same,GI50,COLO 205 colon,18 µM
same,TGI,COLO 205 colon,32.4 µM
same,GI50,DU-145 prostate,3.95 µM
same,TGI,DU-145 prostate,14.9 µM
same,GI50,EKVX NSCLC,16 µM
same,TGI,EKVX NSCLC,30.6 µM
same,GI50,HCC-2998 colon,15.6 µM
same,TGI,HCC-2998 colon,29.7 µM
same,GI50,HCT-116 colon,12.9 µM
same,TGI,HCT-116 colon,27.4 µM
same,GI50,HCT-15 colon,14.6 µM
same,TGI,HCT-15 colon,48 µM
same,GI50,HL-60(TB) leukemia,25 µM
same,TGI,HL-60(TB) leukemia,94.5 µM
same,GI50,HOP-62 NSCLC,18.1 µM
same,TGI,HOP-62 NSCLC,35.4 µM
same,GI50,HOP-92 NSCLC,19.6 µM
same,TGI,HOP-92 NSCLC,41.2 µM
same,GI50,HS 578T breast,20.4 µM
same,TGI,HS 578T breast,56.3 µM
same,GI50,HT29 colon,13.8 µM
same,TGI,HT29 colon,29.6 µM
same,GI50,IGROV1 ovarian,16.3 µM
same,TGI,IGROV1 ovarian,39.7 µM
same,GI50,K-562 leukemia,8.05 µM
same,TGI,K-562 leukemia,80.8 µM
same,GI50,KM12 colon,10.7 µM
same,TGI,KM12 colon,23.6 µM
same,GI50,LOX IMVI melanoma,11.9 µM
same,TGI,LOX IMVI melanoma,26.5 µM
same,GI50,M14 melanoma,18.8 µM
same,TGI,M14 melanoma,38.9 µM
same,GI50,MALME-3M melanoma,17.9 µM
same,TGI,MALME-3M melanoma,35.2 µM
same,GI50,MCF7 breast,4.12 µM
same,TGI,MCF7 breast,21 µM
same,GI50,MDA-MB-231 breast,26 µM
same,TGI,MDA-MB-231 breast,72.8 µM
same,GI50,MDA-MB-435,12 µM
same,TGI,MDA-MB-435,30.1 µM
same,GI50,MOLT-4 leukemia,18.6 µM
same,TGI,MOLT-4 leukemia,94.9 µM
same,GI50,NCI-H226 lung,24.7 µM
same,TGI,NCI-H226 lung,75.2 µM
